The text below walks through data of patent publication US10654896B2, “FoxP3-binding peptides and uses thereof” (FUNDACIÓN PARA LA INVESTIGACIÓN MÉDICA APLICADA, priority 2016, dated 2020).

Data set [1] is described as follows: Human liver microsomal stability. The class given is in vitro ADME. Conditions: for remaining at 20 min, 1 μM: read-out: % Remaining after 20 min; for remaining at 1 h, 1 μM: 60 min, read-out: % Remaining after 60 min. The procedure: (§1) The data collected were analyzed to calculate a half-life (t1/2, min) for tested peptides at a final concentration of 1 μM. Briefly, 5 μL of stock solution of tested peptide (10 mM) were diluted in 495 μL of 1:1 Methanol/Water (final concentration of 100 μM, 50% MeOH). Then, 50 μL of this intermediate solution were diluted in 450 μL of 100 mM potassium phosphate buffer to a concentration of 10 μM (working solution, 5% MeOH). The NADPH regenerating system contains β-Nicotinamide adenine dinucleotide phosphate (Sigma, Cat. # N0505), Isocitric acid (Sigma, Cat. #11252) and Isocitric dehydrogenase (Sigma, Cat. #12002) at a final concentration of 1 unit/mL at incubation.
(§2) Human liver microsomes were obtained from BD Gentest (Cat. #452117) and mouse liver microsomes from Xenotech (Cat. # M1000), to a final concentration of 0.7 mg protein/mL. A volume of 10 μL of peptide solution and 80 μL of microsome solution were added to a 96-well plate and incubated for 10 min at 37° C. The reaction was started by the addition of 10 μL of NADPH regenerating system and stopped by the addition of 300 μL of stop solution (ACN at 4° C., including 100 ng/mL Tolbutamide and 100 ng/mL of Labetalol as internal standard) at different incubation times (0, 5, 10, 20, 30 and 60 min). Concentrations of test compound were quantified by LC-MS/MS methodologies (Shimadzu LC 20-AD/API4000) using peak area ratio of analyte/internal standard and the percent loss of parent compound was calculated under each time point to determine the half-life.
A general note: Microsomes from liver hold many membrane-bound enzymes, among them those of drug oxidation.

Data set [2] is described as follows: Mouse liver microsomal stability. The data set is classed as in vitro ADME. Conditions: mouse liver microsomes; for remaining at 20 min, 1 μM: read-out: % Remaining after 20 min; for remaining at 1 h, 1 μM: 60 min, read-out: % Remaining after 60 min; for half-life: peptide 1 μM. The procedure: as §1, §2
The mark [3] stands for this setting: human liver microsomes, peptide 1 μM, read-out: t1/2.

Structures are written as SMILES. Where a SMILES comes first, the peptide text is derived from it. [ ]: non-standard residue; d: D form.

Take `CSCC[C@@H]1NC(=O)[C@H](C)NC(=O)[C@H](Cc2ccccc2)NC(=O)[C@H](Cc2ccccc2)NC(=O)[C@@H]2CCCN2C(=O)[C@H](Cc2c[nH]c3ccccc23)NC(=O)[C@H](CCSC)NC(=O)[C@H](CCCCN)NC(=O)[C@H](CCCNC(=N)N)NC(=O)[C@H](Cc2ccccc2)NC(=O)[C@H](C)NC(=O)[C@H](CCC(N)=O)NC(=O)[C@H](Cc2ccccc2)NC(=O)[C@@H](C)NC(=O)[C@H](CCCNC(=N)N)NC1=O` [compound 51] (cyclo(R[dA]FQAFRKMWPFFAM)): in data set [1] (human liver microsomes), the fraction remaining at 20 min, 1 μM was 48.7% and the share remaining at 1 h, 1 μM worked out at 46.1%. Also, the half-life in data set [1] (setting [3]) turned out to be 61.7 min. Moreover, in data set [2], the fraction remaining at 20 min, 1 μM was determined as 62.7%; the share remaining at 1 h, 1 μM worked out at 47.7%; the half-life was 63.8 min.

With `CSCC[C@@H]1NC(=O)[C@H](C)NC(=O)[C@H](Cc2ccccc2)NC(=O)[C@H](Cc2ccccc2)NC(=O)[C@@H]2CCCN2C(=O)[C@H](Cc2c[nH]c3ccccc23)NC(=O)[C@H](CCSC)NC(=O)[C@H](CCCCN)NC(=O)[C@H](CCCNC(=N)N)NC(=O)[C@H](Cc2ccccc2)NC(=O)[C@H](C)NC(=O)[C@H](CCC(N)=O)NC(=O)[C@H](Cc2ccccc2)NC(=O)[C@@H](C)NC(=O)[C@H](CCCNC(=N)N)NCCCNC1=O` [compound 52], in data set [1] (human liver microsomes), the share remaining at 20 min, 1 μM was found to be 76.9% and the fraction remaining at 1 h, 1 μM was found to be 40.1%. For the same compound, the half-life in data set [1] (setting [3]) stood at 41.4 min. Also, in data set [2], the share remaining at 20 min, 1 μM turned out to be 98.9%; the share remaining at 1 h, 1 μM came to 48%; the half-life was 46.9 min.

Consider `CSCC[C@@H]1NC(=O)[C@H](C)NC(=O)[C@H](Cc2ccccc2)NC(=O)[C@H](Cc2ccccc2)NC(=O)[C@@H]2CCCN2C(=O)[C@H](Cc2c[nH]c3ccccc23)NC(=O)[C@H](CCSC)NC(=O)[C@H](CCCCN)NC(=O)[C@H](CCCNC(=N)N)NC(=O)[C@H](Cc2ccccc2)NC(=O)[C@H](C)NC(=O)[C@H](CCC(N)=O)NC(=O)[C@H](Cc2ccccc2)NC(=O)[C@@H](C)NC(=O)[C@H](CCCNC(=N)N)NCCOCCNC1=O` [compound 54], for which, in data set [1] (human liver microsomes), the share remaining at 20 min, 1 μM was 55.7% and the fraction remaining at 1 h, 1 μM was found to be 11%. Besides, in data set [1] (setting [3]), the half-life is 18.4 min. In addition, in data set [2], the share remaining at 20 min, 1 μM amounted to 97.3%; the fraction remaining at 1 h, 1 μM came to 30.1%; the half-life was 30.9 min.

`CSCC[C@@H]1NC(=O)[C@H](C)NC(=O)[C@H](Cc2ccccc2)NC(=O)[C@H](Cc2ccccc2)NC(=O)[C@@H]2CCCN2C(=O)[C@H](Cc2c[nH]c3ccccc23)NC(=O)[C@H](CCSC)NC(=O)[C@H](CCCCN)NC(=O)[C@H](CCCNC(=N)N)NC(=O)[C@H](Cc2ccccc2)NC(=O)[C@H](C)NC(=O)[C@H](CCC(N)=O)NC(=O)[C@H](Cc2ccccc2)NC(=O)[C@@H](C)NC(=O)[C@H](CCCNC(=N)N)NCCNC(=O)CNC1=O` [compound 53]: in data set [1] (human liver microsomes), the fraction remaining at 20 min, 1 μM came to 32.9% and the share remaining at 1 h, 1 μM was 2.8%. This compound returned a half-life in data set [1] (human, microsomes) of 11.1 min. Also, in data set [2], the fraction remaining at 20 min, 1 μM stood at 57%; the fraction remaining at 1 h, 1 μM was determined as 3.7%; the half-life is 12.3 min.

The term share remaining denotes the share of the starting amount still present when the sample was taken.
